Experimental data reported in US20050054586A1, “Treatment of ophthalmic disorders” (priority 2003, published 2005).

Experiments:
Assay type in all cases: in vivo
[1] = system: human patients with type-1 diabetes and affected by non-proliferative diabetic retinopathy; test: Clinical study: retinal hemorrhages (stereoscopic color fundus photographs); settings: one tablet daily, 100 mg cloricromene hydrochloride; start of study versus one-year; 20 patients
Description: (§1) A clinical study was conducted in order to test the safety and efficacy of the compounds for treating ophthalmic disorders. The study included 40 human patients with type-1 diabetes and affected by non-proliferative diabetic retinopathy. Twenty of the patients received one tablet daily containing cloricromene hydrochloride (100 mg), whereas twenty of the patients formed a control group and received no treatment. Patients were randomly assigned either to receive cloricromene or to receive no treatment. The patients included males and females over 45 years of age assessed with type-1 diabetes mellitus and non-proliferative retinopathy assessed by fundus photography and fluoroscein angiography. For patients with bilateral disease, both eyes were evaluated. For patients with unilateral disease, the affected eye served as the study eye. Excluded from the study were subjects: affected with proliferative diabetic retinopathy; having visual acuity less than 2/10; with a history of renal failure; or receiving treatment with anti-coagulants, platelet anti-aggregants, or fibrinolytics.
(§2) The results summarized in the following tables are based on start of study versus one-year study period. Visual acuity was assessed by the patients' use of an eye chart. The presence of hemorrhaging, hard exudates or vascular leakage in the retina was evaluated as a means of grading degree of retinal lesion. Hemorrhaging and hard exudates were assessed primarily by observing the stereoscopic color fundus photographs of the retain. Vascular leakage was assessed primarily by fluorescein staining.

[2] = system: human patients with type-1 diabetes and affected by non-proliferative diabetic retinopathy; test: Clinical study: overall progression of retinal damage; settings: one tablet daily, 100 mg; one-year study period; versus untreated controls
Description: as §1, with “Excluded from the study were subjects: affected with proliferative diabetic retinopathy; having visual acuity less than 2/10; with a history of renal failure; or receiving treatment with anti-coagulants, platelet anti-aggregants, or fibrinolytics.” left out
as §2

[3] = system: human patients with type-1 diabetes and affected by non-proliferative diabetic retinopathy; test: Clinical study: retinal vascular leakage (fluorescein staining); settings: one tablet daily, 100 mg cloricromene hydrochloride; start of study versus one-year; 20 patients
Description: as §1, §2

[4] = system: human patients with type-1 diabetes and affected by non-proliferative diabetic retinopathy; test: Clinical study: hard exudates in the retina (stereoscopic color fundus photographs); settings: one tablet daily, 100 mg cloricromene hydrochloride; start of study versus one-year; 20 patients
Description: as §1, §2

[5] = system: human patients with type-1 diabetes and affected by non-proliferative diabetic retinopathy; test: Clinical study: visual acuity assessed by eye chart; settings: one tablet daily, 100 mg cloricromene hydrochloride; start of study versus one-year; 20 patients
Description: as §1, §2

`CCOC(=O)COc1ccc2c(C)c(CCN(CC)CC)c(=O)oc2c1Cl` [Cloricromene, cloricromene] was tested, and the “Retinal Hemorrhages: Improved, number of patients (%)” value [1] was 13 (65%), the “Retinal Hemorrhages: Stable, number of patients (%)” value [1] was 6 (30%) and the “Retinal Hemorrhages: Worse, number of patients (%)” value [1] was 1 (5%). For the same compound, the “progression of retinal damage in diabetic patients” value [2] was “effective in delaying the progression of retinal damage”, the “Vascular Leakage: Improved, number of patients (%)” value [3] was 3 (15%) and the “Vascular Leakage: Stable, number of patients (%)” value [3] was 16 (80%). For the same compound, the “Vascular Leakage: Worse, number of patients (%)” value [3] was 1 (5%), the “Hard Exudates: Improved, number of patients (%)” value [4] was 14 (70%) and the “Hard Exudates: Stable, number of patients (%)” value [4] was 6 (30%). The “Hard Exudates: Worse, number of patients (%)” value [4] was 0 (0%), the “Visual Acuity: Improved, number of patients (%)” value [5] was 11 (55%) and the “Visual Acuity: Stable, number of patients (%)” value [5] was 8 (40%). The “Visual Acuity: Worse, number of patients (%)” value [5] was 1 (5%).
